From ChEMBL document CHEMBL5154753, “Discovery and Structural Optimization of Toddacoumalone Derivatives as Novel PDE4 Inhibitors for the Topical Treatment of Psoriasis” (J Med Chem, 2022)
Values after ≈ are worked out from the molar mass of the structure shown. Active and inactive are the calls of the source. The calls are words filed in the database; no cut-off is given here.

Assays:
[1] = target: cAMP and cAMP-inhibited cGMP 3',5'-cyclic phosphodiesterase 10A (Homo sapiens, UniProt Q9Y233); test: Inhibition of PDE10A2 (449 to 770 residues) (unknown origin) expressed in Escherichia coli BL21 using [3H-GMP] or [3H-AMP] as substrate incubated for 15 mins by liquid scintillation counting method
cAMP and cAMP-inhibited cGMP 3',5'-cyclic phosphodiesterase 10A, sequence (Q9Y233 whole entry, the tested form may be a part): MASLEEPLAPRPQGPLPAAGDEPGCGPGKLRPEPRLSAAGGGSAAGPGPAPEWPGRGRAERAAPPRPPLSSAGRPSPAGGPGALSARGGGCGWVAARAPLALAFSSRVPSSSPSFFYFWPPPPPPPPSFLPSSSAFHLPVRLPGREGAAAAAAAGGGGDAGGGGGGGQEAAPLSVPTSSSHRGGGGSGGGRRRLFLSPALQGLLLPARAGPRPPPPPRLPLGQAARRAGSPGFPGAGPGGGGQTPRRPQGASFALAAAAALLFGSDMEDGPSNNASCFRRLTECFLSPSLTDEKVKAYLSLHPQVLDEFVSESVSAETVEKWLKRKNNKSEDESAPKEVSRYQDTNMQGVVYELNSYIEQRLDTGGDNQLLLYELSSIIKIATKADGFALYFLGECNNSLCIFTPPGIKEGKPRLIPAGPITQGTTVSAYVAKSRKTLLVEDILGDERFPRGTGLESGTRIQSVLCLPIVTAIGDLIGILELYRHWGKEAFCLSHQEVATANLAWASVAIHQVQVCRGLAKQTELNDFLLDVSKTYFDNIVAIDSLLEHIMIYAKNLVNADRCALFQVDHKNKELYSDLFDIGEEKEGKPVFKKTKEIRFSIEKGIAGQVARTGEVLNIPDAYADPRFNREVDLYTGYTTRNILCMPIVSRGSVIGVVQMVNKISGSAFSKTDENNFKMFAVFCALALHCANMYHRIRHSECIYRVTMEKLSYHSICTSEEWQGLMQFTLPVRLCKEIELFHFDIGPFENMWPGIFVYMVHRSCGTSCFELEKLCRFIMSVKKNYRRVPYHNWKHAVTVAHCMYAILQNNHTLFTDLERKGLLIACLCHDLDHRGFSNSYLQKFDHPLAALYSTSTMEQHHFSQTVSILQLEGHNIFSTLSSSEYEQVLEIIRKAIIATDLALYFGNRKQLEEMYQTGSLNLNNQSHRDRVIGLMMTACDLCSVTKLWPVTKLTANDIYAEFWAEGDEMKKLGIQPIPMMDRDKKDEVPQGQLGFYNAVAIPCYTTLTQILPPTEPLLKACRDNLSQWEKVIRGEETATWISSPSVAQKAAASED

[2] = target: High affinity 3',5'-cyclic-AMP phosphodiesterase 7A (Homo sapiens, UniProt Q13946); test: Inhibition of PDE7A1 (130 to 482 residues) (unknown origin) expressed in Escherichia coli BL21 using [3H-GMP] or [3H-AMP] as substrate incubated for 15 mins by liquid scintillation counting method
High affinity 3',5'-cyclic-AMP phosphodiesterase 7A, sequence (Q13946 whole entry, the tested form may be a part): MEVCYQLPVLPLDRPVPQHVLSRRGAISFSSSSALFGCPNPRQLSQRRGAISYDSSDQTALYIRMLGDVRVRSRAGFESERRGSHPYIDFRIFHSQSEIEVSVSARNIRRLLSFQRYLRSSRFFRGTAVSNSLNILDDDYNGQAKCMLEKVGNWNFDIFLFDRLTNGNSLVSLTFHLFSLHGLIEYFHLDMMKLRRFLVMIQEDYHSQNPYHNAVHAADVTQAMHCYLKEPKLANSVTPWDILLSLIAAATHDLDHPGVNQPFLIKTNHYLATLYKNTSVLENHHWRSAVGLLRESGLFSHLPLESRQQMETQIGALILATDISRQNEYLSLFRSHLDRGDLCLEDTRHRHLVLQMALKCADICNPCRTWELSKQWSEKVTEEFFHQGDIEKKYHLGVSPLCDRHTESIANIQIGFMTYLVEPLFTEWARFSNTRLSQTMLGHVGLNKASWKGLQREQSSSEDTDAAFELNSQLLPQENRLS

[3] = target: 3',5'-cyclic-AMP phosphodiesterase 4D (Homo sapiens, UniProt Q08499); test: Inhibition of PDE4D2 (86 to 413 residues) (unknown origin) expressed in Escherichia coli BL21 using [3H-GMP] or [3H-AMP] as substrate incubated for 15 mins by liquid scintillation counting method
3',5'-cyclic-AMP phosphodiesterase 4D, sequence (Q08499 whole entry, the tested form may be a part): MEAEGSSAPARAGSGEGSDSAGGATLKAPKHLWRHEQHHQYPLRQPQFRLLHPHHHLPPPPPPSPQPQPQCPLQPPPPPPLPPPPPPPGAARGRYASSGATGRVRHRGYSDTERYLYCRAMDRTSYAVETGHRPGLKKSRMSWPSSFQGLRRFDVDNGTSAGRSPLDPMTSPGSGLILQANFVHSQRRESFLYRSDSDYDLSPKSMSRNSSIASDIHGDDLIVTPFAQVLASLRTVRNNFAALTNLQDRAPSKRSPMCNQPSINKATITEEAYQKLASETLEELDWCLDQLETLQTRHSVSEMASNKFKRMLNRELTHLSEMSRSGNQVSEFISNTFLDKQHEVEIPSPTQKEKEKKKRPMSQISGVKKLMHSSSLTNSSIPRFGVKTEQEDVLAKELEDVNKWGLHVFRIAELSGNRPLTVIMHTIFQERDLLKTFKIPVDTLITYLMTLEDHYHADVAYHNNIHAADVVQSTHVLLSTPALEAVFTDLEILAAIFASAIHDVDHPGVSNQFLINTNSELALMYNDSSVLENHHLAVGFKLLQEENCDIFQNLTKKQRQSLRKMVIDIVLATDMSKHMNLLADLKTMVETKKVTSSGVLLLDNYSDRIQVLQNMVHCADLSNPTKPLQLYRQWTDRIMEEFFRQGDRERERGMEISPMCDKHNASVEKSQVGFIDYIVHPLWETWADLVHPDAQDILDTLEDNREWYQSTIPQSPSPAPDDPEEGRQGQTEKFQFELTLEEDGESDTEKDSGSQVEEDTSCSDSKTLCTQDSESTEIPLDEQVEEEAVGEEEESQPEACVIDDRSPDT

[4] = target: 3',5'-cyclic-AMP phosphodiesterase 4B (Homo sapiens, UniProt Q07343); test: Inhibition of PDE4B2 (152 to 487 residues) (unknown origin) expressed in Escherichia coli BL21 using [3H-GMP] or [3H-AMP] as substrate incubated for 15 mins by liquid scintillation counting method
3',5'-cyclic-AMP phosphodiesterase 4B, sequence (Q07343 whole entry, the tested form may be a part): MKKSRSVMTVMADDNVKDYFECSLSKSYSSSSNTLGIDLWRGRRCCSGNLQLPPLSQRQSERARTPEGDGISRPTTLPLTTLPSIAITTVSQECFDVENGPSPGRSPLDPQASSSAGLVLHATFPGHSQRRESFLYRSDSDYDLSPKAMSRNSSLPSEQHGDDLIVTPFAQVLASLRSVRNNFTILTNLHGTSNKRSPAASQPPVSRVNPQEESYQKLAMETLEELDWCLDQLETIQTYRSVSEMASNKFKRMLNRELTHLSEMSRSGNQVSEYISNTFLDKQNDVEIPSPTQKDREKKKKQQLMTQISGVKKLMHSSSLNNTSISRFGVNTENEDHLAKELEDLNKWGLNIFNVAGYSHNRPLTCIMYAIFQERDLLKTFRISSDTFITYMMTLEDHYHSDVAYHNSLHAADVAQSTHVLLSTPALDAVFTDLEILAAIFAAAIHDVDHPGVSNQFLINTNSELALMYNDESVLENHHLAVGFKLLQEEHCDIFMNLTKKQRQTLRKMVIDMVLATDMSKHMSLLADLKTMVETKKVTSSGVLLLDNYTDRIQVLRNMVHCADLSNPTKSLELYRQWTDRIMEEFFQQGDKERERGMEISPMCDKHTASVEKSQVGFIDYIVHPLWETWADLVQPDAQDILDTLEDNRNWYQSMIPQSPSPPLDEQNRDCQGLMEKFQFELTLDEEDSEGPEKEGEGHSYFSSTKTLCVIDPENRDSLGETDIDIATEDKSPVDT

[5] = target: cGMP-dependent 3',5'-cyclic phosphodiesterase (Homo sapiens, UniProt O00408); test: Inhibition of PDE2A (580 to 919 residues) (unknown origin) expressed in Escherichia coli BL21 using [3H-GMP] or [3H-AMP] as substrate incubated for 15 mins by liquid scintillation counting method
cGMP-dependent 3',5'-cyclic phosphodiesterase, sequence (O00408 whole entry, the tested form may be a part): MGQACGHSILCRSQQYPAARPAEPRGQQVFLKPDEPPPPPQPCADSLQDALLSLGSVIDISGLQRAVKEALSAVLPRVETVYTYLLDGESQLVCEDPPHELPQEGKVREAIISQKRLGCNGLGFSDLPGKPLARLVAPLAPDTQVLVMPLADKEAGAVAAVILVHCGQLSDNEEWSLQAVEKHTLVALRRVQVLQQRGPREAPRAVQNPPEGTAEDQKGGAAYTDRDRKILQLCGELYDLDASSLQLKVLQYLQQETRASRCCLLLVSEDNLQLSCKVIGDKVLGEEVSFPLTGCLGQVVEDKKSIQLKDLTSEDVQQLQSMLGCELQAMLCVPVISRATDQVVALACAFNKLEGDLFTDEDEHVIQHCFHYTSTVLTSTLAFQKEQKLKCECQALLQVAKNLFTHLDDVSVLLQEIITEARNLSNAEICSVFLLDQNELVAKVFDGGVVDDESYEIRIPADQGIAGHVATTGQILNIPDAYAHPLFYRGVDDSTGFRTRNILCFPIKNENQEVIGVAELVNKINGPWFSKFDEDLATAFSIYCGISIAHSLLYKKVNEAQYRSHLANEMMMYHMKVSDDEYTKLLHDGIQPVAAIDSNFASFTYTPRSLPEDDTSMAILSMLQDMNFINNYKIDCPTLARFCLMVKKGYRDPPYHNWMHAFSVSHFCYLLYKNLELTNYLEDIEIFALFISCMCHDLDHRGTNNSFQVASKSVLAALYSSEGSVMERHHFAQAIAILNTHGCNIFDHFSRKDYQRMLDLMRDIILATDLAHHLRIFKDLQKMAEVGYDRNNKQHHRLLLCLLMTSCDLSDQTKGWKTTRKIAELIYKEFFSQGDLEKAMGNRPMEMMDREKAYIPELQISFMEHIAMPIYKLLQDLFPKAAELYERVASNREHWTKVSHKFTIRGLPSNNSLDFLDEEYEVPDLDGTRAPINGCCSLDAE

[6] = Aqueous solubility of compound by HPLC analysis; assay type: physicochemical; conditions: buffer
[7] = AUC (0 to t) in ICR mouse at 10 mg/kg, iv measured upto 24 hrs by LC-MS/MS analysis; assay type: ADME, organism-based; design: dose 10 mg/kg, time < 24 hrs, route iv; conditions: in vivo
[8] = Half life in ICR mouse at 10 mg/kg, iv measured upto 24 hrs by LC-MS/MS analysis; assay type: ADME, organism-based; conditions: in vivo
[9] = Clearance in ICR mouse at 10 mg/kg, iv measured upto 24 hrs by LC-MS/MS analysis; assay type: ADME, organism-based; conditions: in vivo
[10] = Tmax in ICR mouse at 30 mg/kg, po measured upto 24 hrs by LC-MS/MS analysis; assay type: ADME, organism-based; conditions: in vivo
RAW264.7 = test: Cytotoxicity against mouse RAW264.7 cells assessed as cell viability incubated for 48 hrs; assay type: toxicity, cell-based; conditions: raw264.7, 48 h
Mus musculus [11] = test: Anti-psoriatic activity in IMQ-induced BALB/c psoriasis mouse model assessed as reduction in erythema score at 10 mg/kg, po for 7 days; assay type: functional, organism-based; conditions: time 7.0 day
Mus musculus [12] = species: Mus musculus; test: Anti-psoriatic activity in IMQ-induced BALB/c psoriasis mouse model assessed as reduction in erythema score at 62.5 mg as 2% ointment, TOP daily and measured upto 7 days; assay type: functional, organism-based; conditions: time <= 7.0 day, DDE = dose-dependent effect
Mus musculus [13] = species: Mus musculus; test: Anti-psoriatic activity in IMQ-induced BALB/c psoriasis mouse model assessed as reduction in thickness score at 62.5 mg as 2% ointment, TOP daily and measured upto 7 days; assay type: functional, organism-based; conditions: time <= 7.0 day, DDE = dose-dependent effect
Mus musculus [14] = species: Mus musculus; test: Anti-psoriatic activity in IMQ-induced BALB/c psoriasis mouse model assessed as reduction IMQ- induced immune response by measuring spleen weight loss at 62.5 mg as 2% ointment, TOP daily and measured upto 7 days; assay type: functional, organism-based; conditions: time <= 7.0 day
Mus musculus [15] = species: Mus musculus; test: Anti-psoriatic activity in IMQ-induced BALB/c psoriasis mouse model assessed as change in skin thickness at 62.5 mg as 2% ointment, TOP daily for 7 days by hematoxylin and eosin staining based confocal laser scanning microscopy; assay type: functional, organism-based; conditions: time 7.0 day
Mus musculus [16] = species: Mus musculus; test: Anti-psoriatic activity in IMQ-induced BALB/c psoriasis mouse model assessed as reduction in dermal cell proliferation at 62.5 mg as 2% ointment, TOP daily for 7 days by Ki67+ expression based immunohistochemistry analysis; assay type: functional, organism-based; conditions: time 7.0 day
Mus musculus [17] = species: Mus musculus; test: Anti-psoriatic activity in IMQ-induced BALB/c psoriasis mouse model assessed as reduction in epidermal cell proliferation at 62.5 mg as 2% ointment, TOP daily for 7 days by Ki67+ expression based immunohistochemistry analysis; assay type: functional, organism-based; conditions: time 7.0 day
Mus musculus [18] = species: Mus musculus; test: Anti-psoriatic activity in IMQ-induced BALB/c psoriasis mouse model assessed as reduction in erythema score at 62.5 mg as 4% ointment, TOP daily and measured upto 7 days; assay type: functional, organism-based; conditions: time <= 7.0 day, DDE = dose-dependent effect
Mus musculus [19] = species: Mus musculus; test: Anti-psoriatic activity in IMQ-induced BALB/c psoriasis mouse model assessed as reduction IMQ- induced immune response by measuring spleen weight loss at 62.5 mg as 4% ointment, TOP daily and measured upto 7 days; assay type: functional, organism-based; conditions: time <= 7.0 day
Mus musculus [20] = species: Mus musculus; test: Anti-psoriatic activity in IMQ-induced BALB/c psoriasis mouse model assessed as reduction in epidermal cell proliferation at 62.5 mg as 4% ointment, TOP daily for 7 days by Ki67+ expression based immunohistochemistry analysis; assay type: functional, organism-based; conditions: time 7.0 day

`CCn1c(=O)c2c(c3ccc(C)nc31)O[C@@](C)(CCO)C[C@H]2C=C(C)C` gave an IC50 [1] of 1760 nM, an IC50 [2] of 2130 nM and an IC50 [3] of 3.1 nM. For the same molecule, the IC50 [4] was 3.2 nM, the IC50 [5] was 1510 nM and the solubility [6] was 10 µg/mL (≈ 28.1 µM). The AUC(0-t) at 24 h [7] was 2610 ng·h/mL, the half-life [8] was 55.2 min and the clearance [9] was 63.8 mL/min/kg. The Tmax [10] was 60 min, the Activity (RAW264.7) was “Non-Toxic” and the Activity (Mus musculus [11]) was “Active”. The Activity (Mus musculus [12]) was “Dde”, the Activity (Mus musculus [13]) was “Dde” and the Activity (Mus musculus [14]) was “Active”. The Activity (Mus musculus [15]) was “Active”, the Activity (Mus musculus [16]) was “Active” and the Activity (Mus musculus [17]) was “Active”. The Activity (Mus musculus [18]) was “Dde”, the Activity (Mus musculus [19]) was “Active” and the Activity (Mus musculus [20]) was “Active”.
